Measured values as given in patent US11279687B2, “Compounds and compositions for the inhibition of NAMPT” (Valo Health, Inc., priority 2010, dated 2022).

Key:
[1] = tested on: A2780 cells; test: In-vitro cell proliferation assay (SRB), A2780 cells; format: cell-based; details: Homo sapiens, A2780, 72 h, A2780 cells, 72 hours, SRB; read-out: A2780 IC50;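 further: viable cell number read as SRB absorbance, background from media-only wells subtracted, IC50 interpolated from percent inhibition at two bracketing compound concentrations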
[2] = target: NAMPT (Homo sapiens (Human), UniProt P43490); test: NAMPT biochemical inhibition assay (NMN quantified by mass spectrometry); details: NAMPT biochemical inhibition; read-out: Biochem IC50
Sequence of NAMPT (P43490 whole entry): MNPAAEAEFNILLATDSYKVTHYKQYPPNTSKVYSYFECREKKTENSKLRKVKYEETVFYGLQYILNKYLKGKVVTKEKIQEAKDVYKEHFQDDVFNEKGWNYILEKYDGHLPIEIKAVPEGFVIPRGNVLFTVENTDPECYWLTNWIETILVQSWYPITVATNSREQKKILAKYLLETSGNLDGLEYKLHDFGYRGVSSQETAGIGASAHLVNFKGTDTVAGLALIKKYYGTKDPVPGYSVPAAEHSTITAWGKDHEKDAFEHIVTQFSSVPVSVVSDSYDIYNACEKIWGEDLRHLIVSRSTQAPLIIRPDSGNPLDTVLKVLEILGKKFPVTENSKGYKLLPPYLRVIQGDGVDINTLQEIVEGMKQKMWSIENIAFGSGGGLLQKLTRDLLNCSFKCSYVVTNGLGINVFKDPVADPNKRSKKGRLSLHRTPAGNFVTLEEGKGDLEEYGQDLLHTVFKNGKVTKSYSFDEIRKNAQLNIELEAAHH

| Compound | IC50 [1] [nM] | IC50 [2] [nM] |
| --- | --- | --- |
| Cc1ccc(F)c(S(=O)(=O)c2ccc(NC(=O)NCc3cccnc3)cc2)c1Cl [3-{4-[(2-chloro-6-fluoro-3-methylbenzene)sulfonyl]phenyl}-1-(pyridin-3-ylmethyl)urea] | 336 | 7 |
| O=C(NCc1cccnc1)Nc1ccc(S(=O)(=O)c2ccccc2Cl)cc1 [3-{4-[(2-chlorobenzene)sulfonyl]phenyl}-1-(pyridin-3-ylmethyl)urea] | 475 | 5 |
| O=C(NCc1cccnc1)Nc1ccc(S(=O)(=O)Nc2ccccc2Cl)cc1 [3-{4-[(2-chlorophenyl)sulfamoyl]phenyl}-1-(pyridin-3-ylmethyl)urea] | 41 | 3 |
| CCc1ccccc1S(=O)(=O)c1ccc(NC(=O)NCc2cccnc2)cc1 [3-{4-[(2-ethylbenzene)sulfonyl]phenyl}-1-(pyridin-3-ylmethyl)urea] | 169 | 2 |
| COc1cccc(S(=O)(=O)c2ccc(NC(=O)NCc3cccnc3)cc2)c1F [3-{4-[(2-fluoro-3-methoxybenzene)sulfonyl]phenyl}-1-(pyridin-3-ylmethyl)urea] | 387 | 1 |
| COc1ccc(S(=O)(=O)c2ccc(NC(=O)NCc3cccnc3)cc2)c(F)c1 [3-{4-[(2-fluoro-4-methoxybenzene)sulfonyl]phenyl}-1-(pyridin-3-ylmethyl)urea] | 311 | 3 |
| Cc1ccc(S(=O)(=O)c2ccc(NC(=O)NCc3cccnc3)cc2)c(F)c1 [3-{4-[(2-fluoro-4-methylbenzene)sulfonyl]phenyl}-1-(pyridin-3-ylmethyl)urea] | 517 | 2 |
| Cc1ccc(NS(=O)(=O)c2ccc(NC(=O)NCc3cccnc3)cc2)c(F)c1 [3-{4-[(2-fluoro-4-methylphenyl)sulfamoyl]phenyl}-1-(pyridin-3-ylmethyl)urea] | 157 | 2 |
| Cc1ccc(F)c(S(=O)(=O)c2ccc(NC(=O)NCc3cccnc3)cc2)c1 [3-{4-[(2-fluoro-5-methylbenzene)sulfonyl]phenyl}-1-(pyridin-3-ylmethyl)urea] | > 1000 | 12 |
| O=C(NCc1cccnc1)Nc1ccc(S(=O)(=O)c2ccccc2F)cc1 [3-{4-[(2-fluorobenzene)sulfonyl]phenyl}-1-(pyridin-3-ylmethyl)urea] | 493 | 3 |
| COc1ncccc1NS(=O)(=O)c1ccc(NC(=O)NCc2cccnc2)cc1 [3-{4-[(2-methoxypyridin-3-yl)sulfamoyl]phenyl}-1-(pyridin-3-ylmethyl)urea] | 114 | 7 |
| Cc1ccccc1S(=O)(=O)c1ccc(NC(=O)NCc2cccnc2)cc1 [3-{4-[(2-methylbenzene)sulfonyl]phenyl}-1-(pyridin-3-ylmethyl)urea] | 450 | 2 |
| CC(C)(NS(=O)(=O)c1ccc(NC(=O)NCc2cccnc2)cc1)c1ccccc1 [3-{4-[(2-phenylpropan-2-yl)sulfamoyl]phenyl}-1-(pyridin-3-ylmethyl)urea] | 39 | 5 |
| COC[C@@H]1CCCN1S(=O)(=O)c1ccc(NC(=O)NCc2cccnc2)cc1 [3-{4-[(2S)-2-(methoxymethyl)pyrrolidine-1-sulfonyl]phenyl}-1-(pyridin-3-ylmethyl)urea] | 60 | 2 |
| O=C(NCc1cccnc1)Nc1ccc(S(=O)(=O)c2ccc(Cl)c(Cl)c2)cc1 [3-{4-[(3,4-dichlorobenzene)sulfonyl]phenyl}-1-(pyridin-3-ylmethyl)urea] | 100 to 1000 | 2.9 |
| O=C(NCc1cccnc1)Nc1ccc(S(=O)(=O)Nc2ccc(Cl)c(Cl)c2)cc1 [3-{4-[(3,4-dichlorophenyl)sulfamoyl]phenyl]-1-(pyridin-3-ylmethyl)urea] | 122 | 6 |
| O=C(NCc1cccnc1)Nc1ccc(S(=O)(=O)c2ccc(F)c(F)c2)cc1 [3-{4-[(3,4-difluorobenzene)sulfonyl]phenyl}-1-(pyridin-3-ylmethyl)urea] | 214 | 3 |
| COc1ccc(NS(=O)(=O)c2ccc(NC(=O)NCc3cccnc3)cc2)cc1OC [3-{4-[(3,4-dimethoxyphenyl)sulfamoyl]phenyl]-1-(pyridin-3-ylmethyl)urea] | 116 | 5 |
| Cc1ccc(NS(=O)(=O)c2ccc(NC(=O)NCc3cccnc3)cc2)cc1C [3-{4-[(3,4-dimethylphenyl)sulfamoyl]phenyl}-1-(pyridin-3-ylmethyl)urea] | 93 | 3 |
| O=C(NCc1cccnc1)Nc1ccc(S(=O)(=O)c2cc(Cl)cc(Cl)c2)cc1 [3-{4-[(3,5-dichlorobenzene)sulfonyl]phenyl}-1-(pyridin-3-ylmethyl)urea] | 100 to 1000 | 1.9 |
| O=C(NCc1cccnc1)Nc1ccc(S(=O)(=O)c2cc(F)cc(F)c2)cc1 [3-{4-[(3,5-difluorobenzene)sulfonyl]phenyl}-1-(pyridin-3-ylmethyl)urea] | 284 | 3 |

More lines, now with the values ahead:

| IC50 [1] [nM] | IC50 [2] [nM] | Compound |
| --- | --- | --- |
| 32 | 1 | Cc1ccc(NS(=O)(=O)c2ccc(NC(=O)NCc3cccnc3)cc2)c(Cl)c1 [3-{4-[(2-chloro-4-methylphenyl)sulfamoyl]phenyl}-1-(pyridin-3-ylmethyl)urea] |
| 0.4 | 2 | CCOc1ccccc1S(=O)(=O)c1ccc(NC(=O)NCc2cccnc2)cc1 [3-{4-[(2-ethoxybenzene)sulfonyl]phenyl}-1-(pyridin-3-ylmethyl)urea] |
| 32 | 3 | CCOc1ccccc1NS(=O)(=O)c1ccc(NC(=O)NCc2cccnc2)cc1 [3-{4-[(2-ethoxyphenyl)sulfamoyl]phenyl}-1-(pyridin-3-ylmethyl)urea] |
| 10 | 2 | COc1cccc(F)c1S(=O)(=O)c1ccc(NC(=O)NCc2cccnc2)cc1 [3-{4-[(2-fluoro-6-methoxybenzene)sulfonyl]phenyl}-1-(pyridin-3-ylmethyl)urea] |
| 39 | 0.8 | O=C(NCc1cccnc1)Nc1ccc(S(=O)(=O)Nc2ccccc2I)cc1 [3-{4-[(2-iodophenyl)sulfamoyl]phenyl}-1-(pyridin-3-ylmethyl)urea] |
| 7 | 4 | COc1ccc(C)cc1S(=O)(=O)c1ccc(NC(=O)NCc2cccnc2)cc1 [3-{4-[(2-methoxy-5-methylbenzene)sulfonyl]phenyl}-1-(pyridin-3-ylmethyl)urea] |
| 2 | 2 | COc1ccc(C)cc1NS(=O)(=O)c1ccc(NC(=O)NCc2cccnc2)cc1 [3-{4-[(2-methoxy-5-methylphenyl)sulfamoyl]phenyl}-1-(pyridin-3-ylmethyl)urea] |
| 10 | 2 | COc1ccccc1S(=O)(=O)c1ccc(NC(=O)NCc2cccnc2)cc1 [3-{4-[(2-methoxybenzene)sulfonyl]phenyl}-1-(pyridin-3-ylmethyl)urea] |
| 18 | 4 | CC[C@H]1CCCCN1S(=O)(=O)c1ccc(NC(=O)NCc2cccnc2)cc1 [3-{4-[(2S)-2-ethylpiperidine-1-sulfonyl]phenyl}-1-(pyridin-3-ylmethyl)urea] |
| 17 | 5 | COc1ccc(S(=O)(=O)c2ccc(NC(=O)NCc3cccnc3)cc2)cc1OC [3-{4-[(3,4-dimethoxybenzene)sulfonyl]phenyl}-1-(pyridin-3-ylmethyl)urea] |
